molecular target: Dipeptidyl peptidase 4 (Homo sapiens, UniProt P27487)
Sequence (P27487 whole entry): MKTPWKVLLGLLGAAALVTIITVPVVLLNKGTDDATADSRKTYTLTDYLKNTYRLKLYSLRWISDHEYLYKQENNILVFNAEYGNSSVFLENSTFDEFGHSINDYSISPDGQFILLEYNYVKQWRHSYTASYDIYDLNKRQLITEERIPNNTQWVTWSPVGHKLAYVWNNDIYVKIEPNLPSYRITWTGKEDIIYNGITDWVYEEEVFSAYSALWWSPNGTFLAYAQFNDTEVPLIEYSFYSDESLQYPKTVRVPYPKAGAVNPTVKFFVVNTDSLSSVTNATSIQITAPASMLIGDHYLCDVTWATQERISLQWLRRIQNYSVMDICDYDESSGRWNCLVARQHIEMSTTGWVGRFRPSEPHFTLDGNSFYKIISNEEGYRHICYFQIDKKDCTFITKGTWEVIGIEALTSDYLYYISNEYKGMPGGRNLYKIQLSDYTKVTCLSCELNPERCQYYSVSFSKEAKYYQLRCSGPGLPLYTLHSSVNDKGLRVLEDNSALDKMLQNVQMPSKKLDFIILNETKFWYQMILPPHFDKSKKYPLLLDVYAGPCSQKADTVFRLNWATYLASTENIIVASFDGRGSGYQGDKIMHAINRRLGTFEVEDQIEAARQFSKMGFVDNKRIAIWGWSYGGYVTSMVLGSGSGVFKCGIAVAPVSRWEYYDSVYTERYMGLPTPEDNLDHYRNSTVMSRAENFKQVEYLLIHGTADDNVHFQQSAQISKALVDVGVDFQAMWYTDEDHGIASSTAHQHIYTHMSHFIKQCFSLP

SMILES	IC50 [nM]
N[C@@H](CC(=O)N1CCCN(C(=O)c2cncc(C(=O)O)c2)CC1)Cc1cc(F)c(F)cc1F	67
N[C@@H](CC(=O)N1CCCN(C(=O)Nc2ccc(C(=O)O)cc2)CC1)Cc1cc(F)c(F)cc1F	788
N[C@@H](CC(=O)N1CCCN(C(=O)c2ccc(S(N)(=O)=O)cc2)CC1)Cc1cc(F)c(F)cc1F	288
N[C@@H](CC(=O)N1CCCN(C(=O)c2ccc3c(c2)OCO3)CC1)Cc1cc(F)c(F)cc1F	490
CN1CCN(C(=O)N2CCCN(C(=O)C[C@H](N)Cc3cc(F)c(F)cc3F)CC2)CC1	1500
N[C@@H](CC(=O)N1CCCN(S(=O)(=O)c2ccc([N+](=O)[O-])cc2)CC1)Cc1cc(F)c(F)cc1F	405
CC(=O)N1CCCN(C(=O)C[C@H](N)Cc2cc(F)c(F)cc2F)CC1	3400
N[C@@H](CC(=O)N1CCCN(Cc2ccccc2)CC1)Cc1cc(F)c(F)cc1F	387
N[C@@H](CC(=O)N1CCCN(S(=O)(=O)c2ccc(C(=O)O)cc2)CC1)Cc1cc(F)c(F)cc1F	239
N[C@@H](CC(=O)N1CCCN(C(=O)c2ccc(C(=O)O)o2)CC1)Cc1cc(F)c(F)cc1F	260
N[C@@H](CC(=O)N1CCCN(C(=O)c2ccccc2)CC1)Cc1cc(F)c(F)cc1F	510
N[C@@H](CC(=O)N1CCCNCC1)Cc1cc(F)c(F)cc1F	1440
N[C@@H](CC(=O)N1CCCN(C(=O)OCc2ccccc2)CC1)Cc1cc(F)c(F)cc1F	490
CCN1CCCN(C(=O)C[C@H](N)Cc2cc(F)c(F)cc2F)CC1	6400
N[C@@H](CC(=O)N1CCCN(C(=O)Nc2ccccc2)CC1)Cc1cc(F)c(F)cc1F	1390
N[C@@H](CC(=O)N1CCCN(c2cnccn2)CC1)Cc1cc(F)c(F)cc1F	423
N[C@@H](CC(=O)N1CCCN(C(=O)c2cccc(C(=O)O)c2)CC1)Cc1cc(F)c(F)cc1F	50
NC(=O)c1ccc(C(=O)N2CCCN(C(=O)C[C@H](N)Cc3cc(F)c(F)cc3F)CC2)cc1	180
N[C@@H](CC(=O)N1CCCN(C(=O)c2ccc(C(=O)O)nc2)CC1)Cc1cc(F)c(F)cc1F	150
N[C@@H](CC(=O)N1CCCN(c2ncccn2)CC1)Cc1cc(F)c(F)cc1F	597
Cc1ccc(S(=O)(=O)N2CCCN(C(=O)C[C@H](N)Cc3cc(F)c(F)cc3F)CC2)cc1	350
N[C@@H](CC(=O)N1CCCN(C(=O)c2cccnc2)CC1)Cc1cc(F)c(F)cc1F	410
CS(=O)(=O)N1CCCN(C(=O)C[C@H](N)Cc2cc(F)c(F)cc2F)CC1	3100

molecular target: Dipeptidyl peptidase 2 (Homo sapiens, UniProt Q9UHL4); assay: Inhibition of DPP2

SMILES	IC50 [nM]
N[C@@H](CC(=O)N1CCCN(C(=O)c2cncc(C(=O)O)c2)CC1)Cc1cc(F)c(F)cc1F	99400
N[C@@H](CC(=O)N1CCCN(C(=O)c2cccc(C(=O)O)c2)CC1)Cc1cc(F)c(F)cc1F	46800
